According to US20090226952A1, “SCREENING METHOD FOR COMPOUNDS WITH A[…]” (Isis Innovation Limited, priority 2005, published 2009):
Entries after “also recorded” stand apart in the source; their conditions may differ.

Tests used:
[1] = tested on: in vitro hippocampal slices (Schaffer Collaterals, excitatory post-synaptic potentials); assay: Electrophysiological field potential (EPSP) recordings in paired-pulse stimulated hippocampal slices; type: cell-based, rat; conditions: for time from peak to half peak activity, peak 2 (t3−t4), vs control: EPSP data; for paired-pulse facilitation in EPSP recordings, treatment vs control / EPSP peak 1 value vs control / EPSP peak 2 value vs control: morphine 10-100 μM, gabapentin 100-150 μM, thiopental 80-150 μM, propofol 10-50 μM; for EPSP peak 1 value vs control / EPSP peak 2 value vs control: paired t-test n=6
Description: (§1) In the study, collective synchronised neuronal activity, i.e. working neuronal assemblies^3, were recorded while monitoring in parallel the underlying synaptic electrical activity (FIG. 1a). Accordingly, the use of the voltage sensitive dye, Di-4-ANEPPS, was combined with standard electrophysiological field potential recordings to measure the excitatory post-synaptic potentials (EPSPs). Under control conditions in physiological saline, electrical stimuli in a paired-pulse paradigm^18 were applied to the Schaffer Collaterals of in vitro hippocampal slices.
(§2) Following terminal anaesthesia using halothane, 400 μm transverse hippocampal slices from 2 week Wistar rats were obtained and left to rest for one hour in a high humidity chamber with oxygenated artificial cerebrospinal fluid (ACSF) (in mM: 124 NaCl, 22 NaHCO3, 10 glucose, 5 KCl, 2 CaCl2, 1.25 MgSO4, 1.25 NaH2PO4) before being submersed in dye solution (4% dye stock solution (in mM: 0.2 mM Di-4-ANEPPS (Molecular Probes, Oregon, USA) in 2.7% ethanol, 0.13% Cremaphor EL), 48% fetal bovine serum and 24% ACSF and 24% ACSF cellulose) for 25 minutes followed by a further one hour rest in the humidity chamber with oxygenated ACSF.
(§3) Electrical stimulation (paired pulse 8-10V, 60 ms interval, 0.1 ms duration) was generated by an isolated stimulator (Digitimer Ltd, UK) via a bipolar electrode (FHC, Maine, USA) and positioned just above the CA3 region. In this way, paired pulses were applied along the Shaffer Collaterals so as to elicit a spreading depolarising wave that formed from the point of stimulation and moved along the pathway towards the CA1 region. A halogen lamp provided the excitatory wavelengths for the dye (through a λ=530±10 nm filter) while the emission was captured on a 2 mm×3 mm CCD sensor (MiCAM01, BrainVision, Tokyo, Japan) through an absorption filter (λ=590 nm). Optical recordings were acquired at a rate of 0.7 ms frame^−1 for 682 frames. 16 optical recordings were averaged for each experimental condition to reduce the effects of dye bleaching and increase the signal-to-noise ratio. Analysis included ΔF/F calculations and a 5×5×3 Gaussian matrix filter (BrainVision Analysis software and Igor Pro 5, Wavemetrics, USA). As indicated above, such optical imaging was combined with standard electrophysiological field potential recordings to measure the excitory post synaptic potentials (EPSPs). […] All statistical comparisons were performed using student t-test of paired samples, n=6; 95% confidence interval.

[2] = tested on: transient working neuronal assemblies in in vitro hippocampal slices; assay: Optical imaging with voltage sensitive dye Di-4-ANEPPS (ΔF/F) of paired-pulse stimulated hippocampal slices; type: cell-based, rat; conditions: for effect on population activity / prolongation of activation of the neuronal assembly after the second pulse / time for which neurons remain activated / return to resting baseline after peak activation following the second stimulating pulse: optical imaging; for effect on population activity / prolongation of activation of the neuronal assembly after the second pulse: vs control ACSF; for time for which neurons remain activated / return to resting baseline after peak activation following the second stimulating pulse: morphine 10-100 μM, gabapentin 100-150 μM, thiopental 80-150 μM, propofol 10-50 μM, control returns within 60 ms; for optical ΔF/F peak 2 value vs control / optical ΔF/F peak 1 value vs control: paired t-test n=6; for time from peak to half peak activity, peak 2 (t3−t4), vs control: ΔF/F data
Description: as §1, §2, §3

SMILES | time from peak to half peak activity, peak 2 (t3−t4), vs control [1] | paired-pulse facilitation in EPSP recordings, treatment vs control [1] | EPSP peak 1 value vs control [1] | EPSP peak 2 value vs control [1] | effect on population activity / prolongation of activation of the neuronal assembly after the second pulse [2] | time for which neurons remain activated / return to resting baseline after peak activation following the second stimulating pulse [2] | optical ΔF/F peak 2 value vs control [2] | time from peak to half peak activity, peak 2 (t3−t4), vs control [2] | paired-pulse facilitation in ΔF/F recordings, treatment vs control [2] | optical ΔF/F peak 1 value vs control [2]
NCC1(CC(=O)O)CCCCC1 [gabapentin] | no significant difference | no significant difference | not significantly changed | not significantly changed | not substantially altered; also recorded: no such effect | ≤ 60 ms | significant difference | no significant difference | – | –
CN1CC[C@]23c4c5ccc(O)c4O[C@H]2[C@@H](O)C=C[C@H]3[C@H]1C5 [morphine] | – | – | – | – | – | ≤ 60 ms | – | – | – | –
CC(C)c1cccc(C(C)C)c1O [propofol, 2,6-diisopropylphenol] | low statistical difference | did not significantly differ | significantly reduced | significantly reduced | prolonged activation | – | significant reduction | very highly significant differences | did not significantly change | did not differ significantly
CCCC(C)C1(CC)C(=O)NC(=S)NC1=O (stereo not shown) [thiopental, 5-ethyl-5-(1-methylbutyl)-2-thiobarbituricacid] | no significant change | abolished | significantly reduced | significantly reduced | prolonged activation | up to 500 ms | significant reduction | highly significant | abolished | did not differ significantly
